In series [1] the test system is Mus musculus. Briefly: Analgesic activity in Swiss albino mouse at 20 mg/kg, sc by mouse tail-flick test. Format: functional, organism-based. Set-up: dose 20 mg/kg.
Series [2] has as its system Mus musculus. Briefly: Inhibition of morphine sulfate-induced analgesic activity in Swiss albino mouse at 20 mg/kg, sc measured 24 hrs post morphine sulfate challenge by mouse tail-flick test. Format: functional. The settings on record: route subcutaneous.
In series [3] the test system is Mus musculus. Briefly: Inhibition of morphine sulfate-induced analgesic activity in Swiss albino mouse at 20 mg/kg, sc measured 48 hrs post morphine sulfate challenge by mouse tail-flick test relative to naloxone hydrochloride. The class given is functional, organism-based. The arrangement: dose 20 mg/kg.
The nature of series [4]: Solubility of the compound in water. The class given is physicochemical. To be noted: buffer.
The subject of series [5] is Mus musculus. Kind of series: Analgesic activity in Swiss albino mouse at 5 to 20 mg/kg administered intramuscularly by mouse tail-flick test. The class given is functional, organism-based.
In series [6] the test system is Mus musculus. Briefly: Inhibition of morphine sulfate-induced analgesic activity in Swiss albino mouse at 20 mg/kg administered intramuscularly measured 30 mins post morphine sulfate challenge by mouse tail-flick test. Format: functional, organism-based. Set-up: dose 20 mg/kg.
In series [7] the test system is Mus musculus. Kind of series: Inhibition of morphine sulfate-induced analgesic activity in sc dosed Swiss albino mouse measured 30 mins post morphine sulfate challenge by mouse tail-flick test. Format: functional.
Series [8] concerns Mus musculus. Briefly: Inhibition of morphine sulfate-induced analgesic activity in Swiss albino mouse at 20 mg/kg administered intramuscularly measured 8 hrs post morphine sulfate challenge by mouse tail-flick test. Format: functional. The settings on record: route intramuscular.

Results on five compounds are retold here after ChEMBL document CHEMBL3244242, “3-Benzazocine amidinium nitronates. An unusual type of opiate antagonist” (J Med Chem, 1978).

Active and inactive are the calls of the source. The calls are words filed in the database; no cut-off is given here.

Consider `CN(C)C(=[NH2+])Cc1ccccc1.CN(C)C1=NC2C(=[N+]([O-])[O-])c3c(cccc3[N+](=O)[O-])C(C1c1ccccc1)C2[N+](=O)[O-]` (centres undefined), for which the outcome in series [1] was inactive. The Imax in series [2] is 50%. Further, in series [3], the inhibition entry is “Active”. Moreover, the solubility entry in series [4] was “Insoluble”.

For `CN(C)C(=[NH2+])Cc1ccccc1.CN(C)C1=NC2c3cc([N+](=O)[O-])ccc3C(=[N+]([O-])[O-])C(C1c1ccccc1)C2[N+](=O)[O-]` (centres undefined), the result in series [5] and in series [6] was inactive. For the same compound, the solubility entry in series [4] is given as “Insoluble”.

Turning to `C[C@@H]1C2Cc3ccc([N+](=O)[O-])cc3[C@@]1(C)CCN2CC1CC1`, the AD50 in series [7] is 9.6 mg/kg.

As for `CN(C)C(=[NH2+])Cc1ccccc1.CN(C)C1=NC2c3ccccc3C(=[N+]([O-])[O-])C(C1c1ccccc1)C2[N+](=O)[O-]` (centres undefined), the outcome in series [5] and in series [6] was inactive. Besides, in series [4], the solubility entry is “Insoluble”.

In the case of `CN(C)C(=[NH2+])Cc1ccccc1.CN(C)C1=NC2C(=[N+]([O-])[O-])c3ccc([N+](=O)[O-])cc3C(C1c1ccccc1)C2[N+](=O)[O-]` (centres undefined), the outcome in series [5] was inactive. The compound further came in with an Imax in series [8] of 50%. Further, in series [4], the solubility entry is “Insoluble”.
